Reference: PMC12368478, “Targeting Ubiquitin‐Specific Protease 7 with Novel 5‐Amino‐Pyrazole Inhibitors: Design, Synthesis, and Biological Evaluation” (Chemmedchem, 2025)
Where “and” joins values, the source holds several entries; their conditions need not be identical. Identical values can stand only once.

Tests used:
[1] = system: SKOV‐3 ovarian adenocarcinoma; assay: MTT assay, SKOV‐3; format: cell-based; settings: SKOV‐3, 10 μM, 48 h
Procedure: (§1) To evaluate the cytotoxicity of the novel USP‐7 inhibitors, compounds 1a–d were preliminary screened at a fixed concentration of 10 μM against eight different cancer cell lines (namely, MCF7 breast adenocarcinoma, SKOV‐3 ovarian adenocarcinoma, Hep‐G2 hepatocellular carcinoma, SK‐Mel28 cutaneous melanoma, MDA‐MB‐231 breast adenocarcinoma, SK‐BR3 breast adenocarcinoma, HeLa cervix epithelioid carcinoma, and A549 lung adenocarcinoma) as well as nonmutated human embryonic fibroblasts (GM‐6114). Cisplatinum (Cis‐Pt) was used as the reference compound.
(§2) To perform the MTT assay, SK‐BR3 (breast adenocarcinoma, Biologic Bank and Cell Factory, IRCCS Policlinico San Martino, Genoa, Italy), MCF‐7 (breast adenocarcinoma, Biologic Bank and Cell Factory, IRCCS Policlinico San Martino, Genoa, Italy), SK‐Mel28 (skin melanoma, Biologic Bank and Cell Factory, IRCCS Policlinico San Martino, Genoa, Italy), Hep‐G2 (hepatocellular carcinoma, ATCC, Manassas, VA), SKOV‐3 (ovarian adenocarcinoma, ATCC, Manassas, VA), MDA‐MB‐231 (breast adenocarcinoma, Biologic Bank and Cell Factory, IRCCS Policlinico San Martino, Genoa, Italy), HeLa (cervical adenocarcinoma, Biologic Bank and Cell Factory, IRCCS Policlinico San Martino, Genoa, Italy), A549 (lung adenocarcinoma, ATCC, Manassas, VA), and GM‐6114 (normal human embryonic fibroblast, ATCC, Manassas, VA) cell lines were cultured in Dulbecco's modified eagle medium (DMEM added with 10% Fetal bovine serum, 2 mM Glutamine, and 1% pen‐strep) and incubated in a humidified environment at 37 °C with 5% CO2. Reagents were acquired from EuroClone (Milan, Italy). All chemical compounds were dissolved in DMSO to give a 10 mM stock solution. Then, after an intermediate dilution in growth medium, they were added to the cultured cells at a final working concentration of 10 μM and incubated for 48 h. At the end of the incubation, 30 μL of MTT (3‐(4,5‐dimethyl‐2‐thiazolyl)‐2,5‐diphenyl‐2H‐tetrazolium bromide) at a concentration of 2 mg mL^−1 in phosphate buffered saline (PBS) were added into each well and further incubated for 4 h. Finally, the supernatants were removed and 100 μL well of DMSO were added to each well to dissolve the Formazan precipitates. After 20 min, plates were read at 570 nm. Results are expressed as the percentage of the control samples where cells have been treated with the same amount of DMSO but without any chemical compound. The assay was repeated three times, and a single compound was tested six times. Means and standard deviations were calculated.

[2] = system: SK‐Mel28 cutaneous melanoma; assay: MTT assay, SK‐Mel28; format: cell-based; settings: SK‐Mel28, 10 μM, 48 h
Procedure: as §1, §2

A549 lung adenocarcinoma = assay: MTT assay, A549; format: cell-based; settings: A549, 10 μM, 48 h
Procedure: as §1, §2

[3] = system: Hep‐G2 hepatocellular carcinoma; assay: MTT assay, Hep‐G2; format: cell-based; settings: Hep‐G2, 10 μM, 48 h
Procedure: as §1, §2

[4] = system: MCF7 breast adenocarcinoma; assay: MTT assay, MCF7; format: cell-based; settings: MCF7, 10 μM, 48 h
Procedure: as §1, §2

[5] = system: HeLa cervix epithelioid carcinoma; assay: MTT assay, HeLa; format: cell-based; settings: 10 μM, 48 h
Procedure: as §1, §2

[6] = system: MDA‐MB‐231 breast adenocarcinoma; assay: MTT assay, MDA‐MB‐231; format: cell-based; settings: MDA‐MB‐231, 10 μM, 48 h
Procedure: as §1, §2

[7] = system: SK‐BR3 breast adenocarcinoma; assay: MTT assay, SK‐BR3; format: cell-based; settings: SK‐BR3, 10 μM, 48 h
Procedure: as §1, §2

recombinant USP‐7 = target: T1, recombinant USP‐7 (Homo sapiens, UniProt Q93009); assay: USP‐7 fluorescence-based enzymatic assay (Ub‐AMC); format: biochemical; settings: recombinant USP‐7, Ubiquitin–AMC substrate, 30 min preincubation; average of three separate experiments
T1 construct: purchased BPS Bioscience 79,256
Procedure: The inhibition efficiency of compounds 1a–d and 2a–d on the USP‐7 enzyme was assessed using a fluorescence‐based enzymatic assay, employing Ubiquitin–AMC as a substrate. In this assay, USP‐7 hydrolyzes Ubiquitin–AMC, leading to an increase in fluorescence signal. To evaluate the inhibitory potential, recombinant USP‐7 was preincubated with varying concentrations of the test compounds before adding the substrate, and fluorescence intensity was subsequently measured. […] Additionally, the elongation of the side chain in compounds 2a–d completely abolished the activity.
In vitro enzymatic inhibition was measured using the USP‐7 inhibitor screening assay kit (catalog #79,256, BPS Bioscience, San Diego, CA, USA) according to the manufacturer's instructions. Briefly, compound stock solutions were prepared in DMSO and diluted tenfold to obtain the working solutions. Then, these solutions and the vehicle control were added to the black 384‐wells plate, together with the USP‐7 enzyme, previously diluted as required by the manufacturer, and incubated at rt for 30 min. Then, the Ub‐AMC substrate was diluted 400‐fold and added to the plate, followed by incubation at rt for 30 min. The final DMSO amount in each well was 1%.

[8] = system: nonmutated human embryonic fibroblasts (GM‐6114); assay: MTT assay, GM‐6114; format: cell-based; settings: GM‐6114 healthy fibroblasts, 10 μM, 48 h
Procedure: as §1, §2

[9] = Parallel artificial membrane permeability assay (PAMPA); format: in vitro ADME; settings: for LogPe ± SD: PBS pH 7.4, 5 h
Procedure: The assay was prepared as follows: 300 μL of PBS pH 7.4 (5% DMSO) was placed in the acceptor wells. A phosphatidylcholine (PC) solution was obtained by dissolving and vortexing PC at 1% w/v in dodecane and solubilized using an ultrasound bath until a clear solution was obtained. […] of this solution was deposited on the membrane portion of the donor well. 150 μL of each molecule, at 100–250 μM final concentration (5% DMSO), was pipetted in the […]. The acceptor (Multiscreen transport Receiver Plate, 96‐well, polystyrene, Millipore) and donor plates (Multiscreen Filter Plates, IP, […], clear, hydrophobic PVDF, Millipore) were subsequently assembled and incubated for 5 h under gentle orbital shaking. The experiment was conducted in duplicate. Lucifer yellow was used as a negative control to establish the integrity of the membrane, quantifying its concentration in both acceptor and donor solutions using fluorescence. […] The results are expressed as means ± SEM of at least three independent experiments.

USP‐7 = system: USP‐7; parameters: method as in PMID 37298148; settings: in vitro and in‐cell assays, neuroblastoma‐related cells; cited from earlier work
[10] = system: neuroblastoma HTLA‐230 cells; parameters: method as in PMID 36780313; settings: cited from earlier work

T1 sequence (Q93009 whole entry): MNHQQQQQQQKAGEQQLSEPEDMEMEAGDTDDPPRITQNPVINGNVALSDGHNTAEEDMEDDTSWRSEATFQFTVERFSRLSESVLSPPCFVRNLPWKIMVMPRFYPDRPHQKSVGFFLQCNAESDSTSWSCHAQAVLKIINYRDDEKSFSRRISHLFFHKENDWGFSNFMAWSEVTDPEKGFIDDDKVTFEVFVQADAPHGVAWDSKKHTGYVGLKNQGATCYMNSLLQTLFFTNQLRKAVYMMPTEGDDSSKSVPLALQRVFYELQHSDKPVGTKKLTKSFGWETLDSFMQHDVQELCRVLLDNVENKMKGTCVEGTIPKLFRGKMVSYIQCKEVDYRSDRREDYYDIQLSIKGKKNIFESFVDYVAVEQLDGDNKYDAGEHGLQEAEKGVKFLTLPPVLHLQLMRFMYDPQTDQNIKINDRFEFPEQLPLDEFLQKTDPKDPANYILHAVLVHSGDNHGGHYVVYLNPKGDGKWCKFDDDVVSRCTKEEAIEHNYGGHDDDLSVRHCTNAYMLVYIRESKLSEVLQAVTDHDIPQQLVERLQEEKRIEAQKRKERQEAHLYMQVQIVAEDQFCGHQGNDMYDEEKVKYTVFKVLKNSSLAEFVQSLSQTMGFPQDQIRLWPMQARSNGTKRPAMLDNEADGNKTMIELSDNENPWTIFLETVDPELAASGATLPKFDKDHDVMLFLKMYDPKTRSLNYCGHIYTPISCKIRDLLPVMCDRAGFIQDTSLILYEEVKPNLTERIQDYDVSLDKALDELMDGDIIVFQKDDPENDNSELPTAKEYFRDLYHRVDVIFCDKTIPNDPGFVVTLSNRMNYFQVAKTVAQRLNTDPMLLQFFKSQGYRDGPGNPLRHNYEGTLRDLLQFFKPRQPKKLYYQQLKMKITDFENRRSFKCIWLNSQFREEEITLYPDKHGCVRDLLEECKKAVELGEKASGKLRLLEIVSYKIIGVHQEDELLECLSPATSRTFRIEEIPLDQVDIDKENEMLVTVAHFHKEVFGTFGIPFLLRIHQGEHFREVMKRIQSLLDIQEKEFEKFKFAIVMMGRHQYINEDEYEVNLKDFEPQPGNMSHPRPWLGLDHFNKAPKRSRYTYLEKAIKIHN

Compound | Cell growth percent [%] [1] [%] | Cell growth percent [%] [2] [%] | Cell growth percent [%] (A549 lung adenocarcinoma) | Cell growth percent [%] [3] [%] | Cell growth percent [%] [4] [%] | Cell growth percent [%] [5] [%] | Cell growth percent [%] [6] [%] | Cell growth percent [%] [7] [%] | IC50 (recombinant USP‐7) [µM] | Cell growth percent [%] [8] [%] | LogPe ± SD ([9]; 100 μM) | LogPe ± SD ([9]; 250 μM) | membrane permeability (in words) ([9]; 100 and 250 μM) | inhibition of USP‐7 enzymatic activity and expression levels (USP‐7) | inhibition of migratory ability [10]
N.N.[Cl][Pt][Cl] [Cis ‐Pt, Cisplatinum, reference compound] | 26.83 | 44.40 | 59.09% | 38.07 | 72.74 | 29.33 | 86.07 | 70.59 | – | – | – | – | – | – | –
CCOC(=O)c1cnn(CC(C)OC(=O)Nc2ccccc2F)c1N (stereo not drawn) [Compound 1a, Ethyl 5‐Amino‐1‐(2‐(((2‐Fluorophenyl)Carbamoyl)Oxy)Propyl)‐1H‐Pyrazole‐4‐Carboxylate] | 102.26 | 95.28 | 104.43% | 97.50 | 109.46 | 105.06 | 106.29 | 98.76 | 2.19 ± 0.49 | 105.96 | – | – | – | – | –
CCOC(=O)c1cnn(CC(C)OC(=O)Nc2cccc(F)c2)c1N (stereo not drawn) [Compound 1b, Ethyl 5‐Amino‐1‐(2‐(((3‐Fluorophenyl)Carbamoyl)Oxy)Propyl)‐1H‐Pyrazole‐4‐Carboxylate] | 98.78 | 115.09 | 39% and 39.06% | 95.70 | 104.08 | 95.63 | 73.53 | 135.91 | 1.48 ± 0.31 | 68.07 | – | – | – | – | –
CCOC(=O)c1cnn(CC(C)OC(=O)Nc2ccc(F)cc2)c1N (stereo not drawn) [Compound 1c, Ethyl 5‐Amino‐1‐(2‐(((4‐Fluorophenyl)Carbamoyl)Oxy)Propyl)‐1H‐Pyrazole‐4‐Carboxylate] | 99.94 | 88.22 | 114.96% | 100.11 | 108.02 | 108.28 | 103.39 | 101.55 | 1.8 ± 0.39 | 112.09 | – | – | – | – | –
CCOC(=O)c1cnn(CC(C)OC(=O)Nc2cccc(C(F)(F)F)c2)c1N (stereo not drawn) [Compound 1d, Ethyl 5‐Amino‐1‐(2‐(((3‐(Trifluoromethyl)Phenyl)Carbamoyl)Oxy)Propyl)‐1H‐Pyrazole‐4‐Carboxylate] | 99.40 | 90.77 | 90.69% | 100.73 | 113.85 | 106.40 | 119.94 | 95.04 | 1.31 ± 0.21 | 96.18 | −4.54 ± 0.02 | −4.81 ± 0.00 | highly permeable | – | –
CCOC(=O)c1cnn(CC(C)O)c1NC(=O)Nc1cccc(F)c1 (stereo not drawn) [STIRUR‐41, reference compound] | 100.50 | 94.26 | 38.88% | 111.36 | 110.71 | 99.83 | 64.32 | 97.17 | 2.77 ± 0.56 | 38.50 | – | – | – | inhibit both the enzymatic activity of USP‐7 and its expression levels | significant inhibition
